In PMC5608804, “Stepwise Evolution Improves Identification of Diverse Peptides Binding to a Protein Target” (Scientific Reports, 2017):
Square brackets hold non-standard residues; d marks the D form. Ends that are not written are not given here. Peptide text beside a SMILES is read from it.

The compounds below were run against T1, streptavidin (Streptomyces avidinii, UniProt P22629) (assay: SPR analysis of peptide binding to immobilized streptavidin (Biacore X100)). Conditions: SPR Kd versus EWVHPQFEQKAK.
T1 construct: purchased GE Healthcare (Little Chalfont, UK)
Protocol: SPR analysis of peptide binding to streptavidin was performed with streptavidin immobilized on a chip and peptides in solution (see Materials and Methods).
Surface Plasmon Resonance (SPR) experiments were performed using a Biacore X100 instrument (GE Healthcare). 60 µl of 100 µg/ml streptavidin in 10 mM Na-acetate (pH 5.0) was immobilized to flow cell 2 (Fc2) of a sensor chip CM5 (GE Healthcare) using the Amine Coupling Kit (GE Healthcare) at 20 °C for 6 min. Peptide stock solutions were prepared at 5 or 10 mM in H2O and diluted in HBS-EP+ (GE Healthcare) buffer. Peptide binding was performed in a multiple kinetics mode using HBS-EP+ as a running buffer and 0.2 M NaCl, 10 mM NaOH, or 10 mM HCl-glycine (pH 1.7) as the regeneration buffer. Binding kinetics parameters were calculated using Biacore X100 software.

T1 sequence (P22629 25-183): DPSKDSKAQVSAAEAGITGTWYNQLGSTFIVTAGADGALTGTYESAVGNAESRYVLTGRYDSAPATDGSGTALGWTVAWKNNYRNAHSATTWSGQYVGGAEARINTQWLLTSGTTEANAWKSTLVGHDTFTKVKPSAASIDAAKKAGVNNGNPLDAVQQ

Compound	fold improvement of Kd over the HPQ peptide also developed in this study [fold]
AFPDYLAEYHGG-NH2 [NH2-AFPDYLAEYHGG-amide]	100

Same assay, conditions: SPR Kd versus Strep-tag II HPQ

Compound	fold improvement of Kd over Strep-tag II HPQ
AFPDYLAEYHGG-NH2 [NH2-AFPDYLAEYHGG-amide]	1,000 fold

Same assay, conditions: SPR sensorgrams, immobilized streptavidin

Compound	type of SPR binding kinetics
SAWSHPQFEK [NH2-SAWSHPQFEK-COOH, reference compound]	fast on/fast off
EWVHPQFEQKAK-NH2 [NH2-EWVHPQFEQKAK-amide]	fast on/fast off
H-GNSFDDWLASKG-NH2	irreversible binding kinetics

Same assay, conditions: SPR, streptavidin amine-coupled to CM5 chip, peptides in HBS-EP+; steady-state affinity for fast on/fast off peptides, otherwise 1:1 binding model

Compound	equilibrium dissociation constant (Kd)
H-GNSFDDWLASKG-NH2	irreversible binding

Same assay, conditions: peptide concentrations of ≤2 mM

Compound	binding in SPR
NC(=O)CC[C@H](NC(=O)[C@H](Cc1c[nH]c2ccccc12)NC(=O)[C@H]1CCCN1C(=O)[C@H](CCC(N)=O)NC(=O)[C@@H](N)CC(N)=O)C(=O)O [NH2-NQpWQ-COOH] (H-NQ[dP]WQ-OH)	no measurable binding

The compounds below were run against T1, streptavidin (assay: Cy5-streptavidin binding on HotSpot discovery array, 5-mer L-peptide library). Conditions: 5-mer L-peptide library array, Cy5-streptavidin; from average of three arrays.
Outline: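 Array of 2,476,099 5-mer peptides (19 amino acids, no cysteine) with Gly-Ser linkers, probed overnight at 4 °C with 0.5 µg/ml Cy5-streptavidin in Tris pH 7.4 buffer containing casein or BSA plus Tween-20. Cy5 fluorescence read at 635 nm; peptides selected by signal-to-background >4 across three arrays.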

Compound	S/B (signal to background ratio)
FFHPQ	192.2
PWHPQ	182.5
TFHPM	52.6
LGHPQ	171.2
HPQRW	30.7
PFHPQ	193.0
DYHPM	28.4
LHPMA	41.0
WHPQG	184.5
TSHPQ	122.6
DDHPQ	31.9
THPQG	125.0
PHPQI	22.5
HPQQS	19.2
WMHPQ	194.6
IHPQN	128.3
WRHPQ	235.3
HPQYG	55.1
LFHPQ	138.2
SNHPM	54.1
VFHPM	53.0
HPQNL	57.7
WHPQT	54.9
IGHPQ	174.2
WQHPM	142.1
VHHPM	54.5

Compound	S/B (signal to background ratio)
HPQNR	50.5
RTHPQ	125.7
HPMFS	20.6
HPQNE	48.0
GHPQG	135.5
HWHPQ	166.7
TRHPQ	156.2
YPHPQ	190.5
SRHPQ	154.4
FWHPQ	176.5
LASYH [L-amino acid 5-mer array peptide]	25.7
WAHPQ	207.5
RGHPQ	135.0
MVHPM	33.8
SHPQM	37.7
RHHPQ	148.9
RHPQW	20.3
VEHPQ	55.4
HLHPM	40.7
PDHPM	23.4
VHPQH	31.7
LGAFH [L-amino acid 5-mer array peptide]	52.3
HNHPQ	146.9
FAHPQ	186.9
LPHPQ	180.6
IQHPQ	139.6

Compound	S/B (signal to background ratio)
ENHPM	23.5
NHPQG	118.8
HPMGQ	20.5
VFHPQ	152.8
MAAHF [L-amino acid 5-mer array peptide]	25.6
AHHPQ	131.6
TMHPM	25.5
LVHPQ	129.9
FTHPQ	177.7
MKHPM	20.4
HPQFR	23.8
NYHPQ	182.7
LYHPQ	211.9
GSHPM	43.0
EHPQR	45.0
MMHPM	48.8
FHPMM	24.3
TGHPM	53.4
ILHPQ	121.2
PGHPQ	168.5
WHPQV	137.6
PHPQY	41.4
HPQFP	141.5
SHPQR	26.8

Same assay, conditions: 5-mer L-peptide library array, Cy5-streptavidin; from the average of three arrays

Compound	S/B (signal to background ratio)
GHPQV	97.6
HPQVG	114.3
DLHPQ	60.4
HPQFH	64.4
DGHPQ	62.6
QNHPM	58.4
HHPQG	108.6
AHPMA	60.9
VVHPQ	79.7
VWHPM	71.2
HPQFF	71.6
NRHPQ	115.2
KQHPQ	94.4
DAHPQ	62.6
MPHPM	58.7
FHPMG	59.2
IVHPQ	94.3
HPQGQ	73.5
KHPQN	64.6
VTHPQ	113.4
HPQMG	59.2
LKHPQ	83.5
HYHPM	88.3
HGHPM	69.3
WEHPQ	98.3
ADHPQ	69.7
HHPQF	110.3
HPQGH	86.0
WTHPM	114.6

Same assay, conditions: 5-mer L-peptide library, from the average of three arrays

Compound	S/B (signal to background ratio)
FMFMF [L-amino acid 5-mer array peptide]	4.2
WHPMW	4.9
EVHPM	5.0
HPQQK	4.4
WGHPH	4.1
PIPDW [L-amino acid 5-mer array peptide]	4.1
HPMRH	4.9
HPQSK	4.7
MPWRY [L-amino acid 5-mer array peptide]	5.0
HHPGQ	4.3
WRHPH	4.2

Same assay, conditions: average of three arrays, L-peptide 5-mer library

Compound	S/B (signal to background ratio)
FMFMF [L-amino acid 5-mer array peptide]	4.2
LARYH [L-amino acid 5-mer array peptide]	12.2
MAKHF [L-amino acid 5-mer array peptide]	5.4
YHETH [L-amino acid 5-mer array peptide]	6.0
MVAHF [L-amino acid 5-mer array peptide]	6.3
LASYH [L-amino acid 5-mer array peptide]	25.7
FDGWL [L-amino acid 5-mer array peptide]	6.7
PIPDW [L-amino acid 5-mer array peptide]	4.1
LGIYH [L-amino acid 5-mer array peptide]	10.5
LGAFH [L-amino acid 5-mer array peptide]	52.3
MAAHF [L-amino acid 5-mer array peptide]	25.6
FDTWL [L-amino acid 5-mer array peptide]	7.3
MPWRY [L-amino acid 5-mer array peptide]	5.0
LGRYH [L-amino acid 5-mer array peptide]	9.7

Same assay, conditions: signal to background ratio; 5-mer L-peptide library array, Cy5-streptavidin

Compound	S/B
LHPQW	12.4
RHPMQ	16.4
HPMYH	13.0
YHPQI	14.3
DHPMM	5.6
WHPMT	16.9
QHPQK	15.8
KHPMS	8.8
HPMGL	9.0
FHPMF	14.7
HPQST	12.9
HPMGH	15.2
LARYH [L-amino acid 5-mer array peptide]	12.2
MAKHF [L-amino acid 5-mer array peptide]	5.4
KHPQY	18.3
HPQPF	5.7
YHETH [L-amino acid 5-mer array peptide]	6.0
HPMRW	12.6
HPQAV	17.8

Compound	S/B
DHPMY	6.4
MVAHF [L-amino acid 5-mer array peptide]	6.3
FHPQP	6.3
HPMQA	6.4
FDGWL [L-amino acid 5-mer array peptide]	6.7
HPMNA	17.1
LGIYH [L-amino acid 5-mer array peptide]	10.5
HPQSF	13.1
HPMVS	8.8
HPWRF	7.0
FDTWL [L-amino acid 5-mer array peptide]	7.3
FLHHP	5.9
HPMYQ	5.7
HPQRS	15.9
LGRYH [L-amino acid 5-mer array peptide]	9.7
HPQTQ	5.4
VHPMN	13.1
HPMYP	15.8
HPQMR	7.1
